In ChEMBL document CHEMBL1153613, “Synthesis and reactivity of novel gamma-phosphate modified ATP analogues” (Bioorg Med Chem Lett, 2009):
Active and inactive are the calls of the source. No cut-off for these calls is given here.

Each compound was assayed against Cyclin-dependent kinase 2 (Homo sapiens) (UniProt P24941) (assay: Effect on wild type recombinant CDK2/cyclin E1 assessed as p27kip1 phosphorylation after 1 hr by immunoblot analysis).

Activity | SMILES
Active | C=CCNP(=O)(O)OP(=O)(O)OP(=O)(O)OC[C@H]1O[C@@H](n2cnc3c(N)ncnc32)[C@H](O)[C@@H]1O
Active | [N-]=[N+]=NCCOP(=O)(O)OP(=O)(O)OP(=O)(O)OC[C@H]1O[C@@H](n2cnc3c(N)ncnc32)[C@H](O)[C@@H]1O
Active | C#CCNP(=O)(O)OP(=O)(O)OP(=O)(O)OC[C@H]1O[C@@H](n2cnc3c(N)ncnc32)[C@H](O)[C@@H]1O
Active | [N-]=[N+]=Nc1ccc(NP(=O)(O)OP(=O)(O)OP(=O)(O)OC[C@H]2O[C@@H](n3cnc4c(N)ncnc43)[C@H](O)[C@@H]2O)cc1

The next lines start with the compound.

SMILES | Activity
[N-]=[N+]=NCCCCCCNP(=O)(O)OP(=O)(O)OP(=O)(O)OC[C@H]1O[C@@H](n2cnc3c(N)ncnc32)[C@H](O)[C@@H]1O | Active
C#CCCNP(=O)(O)OP(=O)(O)OP(=O)(O)OC[C@H]1O[C@@H](n2cnc3c(N)ncnc32)[C@H](O)[C@@H]1O | Active
C#CCCCNP(=O)(O)OP(=O)(O)OP(=O)(O)OC[C@H]1O[C@@H](n2cnc3c(N)ncnc32)[C@H](O)[C@@H]1O | Active
[N-]=[N+]=NCCOCCOCCOCCNP(=O)(O)OP(=O)(O)OP(=O)(O)OC[C@H]1O[C@@H](n2cnc3c(N)ncnc32)[C@H](O)[C@@H]1O | Active
C#CCCCOP(=O)(O)OP(=O)(O)OP(=O)(O)OC[C@H]1O[C@@H](n2cnc3c(N)ncnc32)[C@H](O)[C@@H]1O | Active
